From patent US20220079924A1, “GLUCOCORTICOID RECEPTOR MODULATORS” (ORIC Pharmaceuticals, Inc., priority 2018, published 2022) come the findings set out here.

The assay addresses T1, GR (Homo sapiens, UniProt P04150).
T1 construct: expressed in transfected cells; host or cells: CHO-K1 (CHO-K1-GR-MMTV-Luc reporter cells)
T1 sequence (P04150 1-777): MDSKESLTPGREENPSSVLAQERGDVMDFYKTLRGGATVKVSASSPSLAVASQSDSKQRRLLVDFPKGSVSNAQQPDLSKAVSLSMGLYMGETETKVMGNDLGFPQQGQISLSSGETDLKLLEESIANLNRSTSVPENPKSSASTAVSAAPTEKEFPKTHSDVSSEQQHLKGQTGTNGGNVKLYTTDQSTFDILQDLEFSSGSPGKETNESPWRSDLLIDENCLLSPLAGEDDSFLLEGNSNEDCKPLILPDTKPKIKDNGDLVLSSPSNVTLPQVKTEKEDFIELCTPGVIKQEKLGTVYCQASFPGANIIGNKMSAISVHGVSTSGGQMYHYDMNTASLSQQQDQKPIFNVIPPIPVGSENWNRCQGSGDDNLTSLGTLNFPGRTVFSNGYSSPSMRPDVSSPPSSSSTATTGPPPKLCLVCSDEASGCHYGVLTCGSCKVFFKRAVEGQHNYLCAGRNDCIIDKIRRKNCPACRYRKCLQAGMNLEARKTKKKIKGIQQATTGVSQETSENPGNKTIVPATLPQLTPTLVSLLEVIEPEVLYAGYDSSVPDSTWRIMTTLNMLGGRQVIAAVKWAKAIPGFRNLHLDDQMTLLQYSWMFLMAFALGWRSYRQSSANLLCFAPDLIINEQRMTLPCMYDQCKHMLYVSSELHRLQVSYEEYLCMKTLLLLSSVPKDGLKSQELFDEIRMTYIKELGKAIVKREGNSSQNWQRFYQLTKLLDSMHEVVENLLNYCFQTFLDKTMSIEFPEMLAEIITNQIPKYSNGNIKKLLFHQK
In words: In Vitro GR Luciferase Reporter Assay (antagonist assay). It counts as cell-based. As to conditions: CHO-K1-GR-MMTV-Luc reporter cells, 10 nM Dexamethasone, 18-24 hours. The method, then: Example A: In Vitro GR Luciferase Reporter Assay
Cell Line: CHO-K1-GR-MMTV-Luc reporter cells
Culture Media: DMEM (with phenol red)+10% FBS
Assay Media: DMEM (without phenol red)+10% CSS
Culture CHO-K1-GR-MMTV-Luc reporter cells in T175 flasks in Culture Media at conditions less than 90% confluence.
Using Bravo (Agilent) liquid handler:
200× DMSO 1:3 serial dilutions of control and test compounds in 96-well non-sterile V bottom plate in DMSO, 12 points for each compound were prepared.
Prepared 5× compound serial dilutions: Add 97.5 μL/well of Assay Media into 96-well non-sterile V bottom plate then added 2.5 ul of 200× concentration of compounds and mix well.
Seeded cells for Antagonist Assay: 5200 CHO-K1-GR-MMTV-Luc reporter cells were seeded in Greiner #781080 flat clear bottom 384-well white TC plate in 20 ul of Assay Media containing 12.5 nM Dexamethasone (final concentration=10 nM).
Added compounds: 5 μl of 5× compounds were added to appropriate wells and followed with a quick spin (1000 rpm, 10 sec) to bring media and cells to the bottom of plate. The plates were covered with SealMate film to avoid evaporation and placed in 37° C. incubator for approximately 18-24 hours.
Read plates: Equilibrate appropriate amount of Promega OneGlo luciferase reagent to room temperature. Remove the plates from incubator and add 25 uL of OneGlo reagent/well by Bravo and read the plates on Tecan Spark plate reader within 15 minutes.
The ability of the compounds disclosed herein to inhibit GR activity was quantified and the respective IC50 value was determined. Table 1 provides the cellular IC50 values of compounds disclosed herein.
On the technique in general: Reporter assays use an easily measured gene product as a stand-in for the process of interest.
Consider `O=C(c1cc(F)ccn1)[C@]12Cc3cnn(-c4ccc(F)cc4)c3C=C1CC[C@H](N(CC(F)F)S(=O)(=O)c1ccc(F)cc1)C2` [Example 25], for which the IC50 (usually the midpoint of a concentration-inhibition curve) was at most 100 nM.

`Cn1cc(S(=O)(=O)C[C@H]2CCC3=Cc4c(cnn4-c4ccc(F)cc4)C[C@]3(C(=O)c3cc(Cl)ccn3)C2)cn1` [Example 26] displayed a half-inhibitory concentration (IC50) of at most 100 nM.

As for `O=C(c1cc(F)ccn1)[C@]12Cc3cnn(-c4ccc(F)nc4)c3C=C1CC[C@H](N(C1CC1)S(=O)(=O)c1ccc(F)cc1)C2` [Example 27], the IC50 was at most 100 nM.

Molecule `O=C(c1cc(Cl)ccn1)[C@]12Cc3cnn(-c4ccc(F)cc4)c3C=C1CC[C@H](N(CC(F)F)S(=O)(=O)c1ccc(F)cc1)C2` [Example 28] registered an IC50 of at most 100 nM.

For `Cn1cc(S(=O)(=O)N(CCF)[C@H]2CCC3=Cc4c(cnn4-c4ccc(F)cc4)C[C@]3(C(=O)c3cc(Cl)ccn3)C2)cn1` [Example 29], the half-maximal inhibitory concentration (IC50) was at most 100 nM.

Turning to `Cn1cnc(S(=O)(=O)N(CC(F)F)[C@H]2CCC3=Cc4c(cnn4-c4ccc(F)cc4)C[C@]3(C(=O)c3cc(F)ccn3)C2)n1` [Example 30], the 50% inhibitory concentration (IC50) is at most 100 nM.

Consider `Cn1cnc(S(=O)(=O)N(CC(F)F)[C@H]2CCC3=Cc4c(cnn4-c4ccc(F)cc4)C[C@]3(C(=O)c3cc(Cl)ccn3)C2)n1` [Example 31], for which the IC50 was at most 100 nM.

For `Cn1cc(S(=O)(=O)N(CCF)[C@H]2CCC3=Cc4c(cnn4-c4ccc(F)cc4)C[C@]3(C(=O)c3cc(C(F)(F)F)ccn3)C2)cn1` [Example 32], the IC50 was at most 100 nM.

Consider `Cn1cnc(S(=O)(=O)N([C@H]2CCOC2)[C@H]2CCC3=Cc4c(cnn4-c4ccc(F)cc4)C[C@]3(C(=O)c3cc(C(F)(F)F)ccn3)C2)n1` [Example 33], for which the 50% inhibitory concentration (IC50) is at most 100 nM.

With `O=C(c1cc(F)ccn1)[C@]12Cc3cnn(-c4ccc(F)cc4)c3C=C1CC[C@H](N(CC(F)(F)F)S(=O)(=O)c1ccc(F)cc1)C2` [Example 34], the concentration for half-maximal inhibition (IC50) was at most 100 nM.

For the molecule `C[C@H]([C@H]1CCC2=Cc3c(cnn3-c3ccc(F)cc3)C[C@]2(C(=O)c2ccc(C(F)(F)F)cn2)C1)S(=O)(=O)c1cnn(C)c1` [Example 35], the IC50 was at most 100 nM.

For the molecule `C[C@@H]([C@H]1CCC2=Cc3c(cnn3-c3ccc(F)cc3)C[C@]2(C(=O)c2ccc(C(F)(F)F)cn2)C1)S(=O)(=O)c1cnn(C)c1` [Example 36], the concentration for half-maximal inhibition (IC50) is at most 100 nM.

The molecule `Cn1cc(S(=O)(=O)N(CC(F)F)[C@H]2CCC3=Cc4c(cnn4-c4ccc(F)cc4)C[C@]3(C(=O)c3cc(C(F)(F)F)ccn3)C2)cn1` [Example 37] showed a half-inhibitory concentration (IC50) of at most 100 nM.

The molecule `CC(C)N([C@H]1CCC2=Cc3c(cnn3-c3ccc(F)nc3)C[C@]2(C(=O)c2ncc(C(F)(F)F)s2)C1)S(=O)(=O)c1ncn(C)n1` [Example 38] showed an IC50 of at most 100 nM.

`Cn1cc(S(=O)(=O)N(C2CC2)[C@H]2CCC3=Cc4c(cnn4-c4ccnc(F)c4)C[C@]3(C(=O)c3cc(C(F)(F)F)ccn3)C2)cn1` [Example 39] had a half-maximal inhibitory concentration (IC50) of at most 100 nM.

Turning to `Cn1cnc(S(=O)(=O)N(C2CC2)[C@H]2CCC3=Cc4c(cnn4-c4ccnc(F)c4)C[C@]3(C(=O)c3cc(C(F)(F)F)ccn3)C2)n1` [Example 40], the IC50 was at most 100 nM.

For `Cn1cnc(S(=O)(=O)N(CC(F)(F)F)[C@H]2CCC3=Cc4c(cnn4-c4ccc(F)cc4)C[C@]3(C(=O)c3cc(Cl)ccn3)C2)n1` [Example 41], the IC50 is at most 100 nM.

`Cn1cnc(S(=O)(=O)N([C@H]2CCC3=Cc4c(cnn4-c4ccc(F)cc4)C[C@]3(C(=O)c3cc(C(F)(F)F)ccn3)C2)[C@H]2C[C@](O)(C(F)(F)F)C2)n1` [Example 42]: the concentration for half-maximal inhibition (IC50) is 100 to 1000 nM.

As to `Cn1cnc(S(=O)(=O)N([C@H]2CCC3=Cc4c(cnn4-c4ccc(F)cc4)C[C@]3(C(=O)c3cc(F)ccn3)C2)[C@H]2C[C@](O)(C(F)(F)F)C2)n1` [Example 43], the IC50 is 100 to 1000 nM.

Molecule `Cn1cnc(S(=O)(=O)N([C@H]2CCC3=Cc4c(cnn4-c4ccc(F)cc4)C[C@]3(C(=O)c3cc(Cl)ccn3)C2)[C@H]2C[C@](O)(C(F)(F)F)C2)n1` [Example 44] registered a half-maximal inhibitory concentration (IC50) of at most 100 nM.

For the molecule `Cn1cnc(S(=O)(=O)N([C@H]2CCC3=Cc4c(cnn4-c4ccc(F)cc4)C[C@]3(C(=O)c3cc(Cl)ccn3)C2)[C@H]2C[C@@](O)(C(F)(F)F)C2)n1` [Example 45], the IC50 is at most 100 nM.

The molecule `Cn1cnc(S(=O)(=O)N(C2CC2)[C@H]2CCC3=Cc4c(cnn4-c4ccc(F)cc4)C[C@]3(C(=O)c3ncc(C(C)(C)C)s3)C2)n1` [Example 46] yielded a half-maximal inhibitory concentration (IC50) of at most 100 nM.

As to `Cn1ccc(S(=O)(=O)N(C2CC2)[C@H]2CCC3=Cc4c(cnn4-c4ccc(F)cc4)C[C@]3(C(=O)c3cc(C(F)(F)F)ccn3)C2)c1` [Example 47], the IC50 was at most 100 nM.

Take `Cn1cnc(S(=O)(=O)N(C2CC2)[C@H]2CCC3=Cc4c(cnn4-c4ccc(F)nc4)C[C@]3(C(=O)c3cc(F)ccn3)C2)n1` [Example 48]: the IC50 is at most 100 nM.

The molecule `CCN([C@H]1CCC2=Cc3c(cnn3-c3ccc(F)nc3)C[C@]2(C(=O)c2cc(C(F)(F)F)ccn2)C1)S(=O)(=O)c1ncn(C)n1` [Example 49] registered an IC50 of at most 100 nM.

In turn, `CCN([C@H]1CCC2=Cc3c(cnn3-c3ccc(F)nc3)C[C@]2(C(=O)c2cc(Cl)ccn2)C1)S(=O)(=O)c1ncn(C)n1` [Example 50] yielded a half-inhibitory concentration (IC50) of at most 100 nM.

Molecule `CC(C)N([C@H]1CCC2=Cc3c(cnn3-c3ccc(F)nc3)C[C@]2(C(=O)c2cc(C(F)(F)F)ccn2)C1)S(=O)(=O)c1ncn(C)n1` [Example 51] returned a concentration for half-maximal inhibition (IC50) of at most 100 nM.

The molecule `CC(C)N([C@H]1CCC2=Cc3c(cnn3-c3ccc(F)nc3)C[C@]2(C(=O)c2cc(Cl)ccn2)C1)S(=O)(=O)c1ncn(C)n1` [Example 52] showed a 50% inhibitory concentration (IC50) of at most 100 nM.

The molecule `O=C(c1cc(Cl)ccn1)[C@]12Cc3cnn(-c4ccc(F)cc4)c3C=C1CC[C@H](N(CC(F)(F)F)S(=O)(=O)c1ccc(F)cc1)C2` [Example 53] displayed a concentration for half-maximal inhibition (IC50) of at most 100 nM.

With `Cn1cc(S(=O)(=O)N(Cc2ncco2)[C@H]2CCC3=Cc4c(cnn4-c4ccc(F)cc4)C[C@]3(C(=O)c3cc(C(F)(F)F)ccn3)C2)cn1` [Example 54], the IC50 was at most 100 nM.

With `Cn1cnc(S(=O)(=O)N(C2CC2)[C@H]2CCC3=Cc4c(cnn4-c4ccc(F)cn4)C[C@]3(C(=O)c3cc(C(F)(F)F)ccn3)C2)n1` [Example 55], the concentration for half-maximal inhibition (IC50) was at most 100 nM.

In turn, `C[C@H]([C@H]1CCC2=Cc3c(cnn3-c3ccc(F)cc3)C[C@]2(C(=O)c2ncc(C(F)(F)F)s2)C1)S(=O)(=O)c1ncn(C)n1` [Example 56] gave an IC50 of at most 100 nM.

Turning to `C[C@@H]([C@H]1CCC2=Cc3c(cnn3-c3ccc(F)cc3)C[C@]2(C(=O)c2ncc(C(F)(F)F)s2)C1)S(=O)(=O)c1ncn(C)n1` [Example 57], the concentration for half-maximal inhibition (IC50) is at most 100 nM.

The molecule `Cn1ccc(S(=O)(=O)N(C2CC2)[C@H]2CCC3=Cc4c(cnn4-c4ccc(F)cc4)C[C@]3(C(=O)c3cc(F)ccn3)C2)c1` [Example 58] had an IC50 of at most 100 nM.

`C[C@H]([C@H]1CCC2=Cc3c(cnn3-c3ccc(F)cc3)C[C@]2(C(=O)c2ncc(C(C)(C)C)s2)C1)S(=O)(=O)c1cnn(C)c1` [Example 59] came in with a concentration for half-maximal inhibition (IC50) of at most 100 nM.

The molecule `Cn1cc(S(=O)(=O)N(CCOC(F)(F)F)[C@H]2CCC3=Cc4c(cnn4-c4ccc(F)cc4)C[C@]3(C(=O)c3cc(C(F)(F)F)ccn3)C2)cn1` [Example 60] showed an IC50 of at most 100 nM.

`Cn1cc(S(=O)(=O)N(C2CC2)[C@H]2CCC3=Cc4c(cnn4-c4ccc(F)nc4)C[C@]3(C(=O)c3ncc(C(C)(C)C)s3)C2)cn1` [Example 61] displayed an IC50 of at most 100 nM.

As for `C[C@H]([C@H]1CCC2=Cc3c(cnn3-c3ccc(F)cc3)C[C@]2(C(=O)c2cc(F)ccn2)C1)S(=O)(=O)c1cnn(C)c1` [Example 62], the IC50 was at most 100 nM.

The molecule `CC(C)N([C@H]1CCC2=Cc3c(cnn3-c3ccc(F)cc3)C[C@]2(C(=O)c2ncc(C(C)(C)C)s2)C1)S(=O)(=O)c1cnn(C)c1` [Example 63] came in with a concentration for half-maximal inhibition (IC50) of at most 100 nM.

Molecule `CC(C)N([C@H]1CCC2=Cc3c(cnn3-c3ccc(F)cc3)C[C@]2(C(=O)c2cc(C(C)(C)C)ccn2)C1)S(=O)(=O)c1cnn(C)c1` [Example 64] yielded an IC50 of at most 100 nM.
